This is an account of results in ChEMBL document CHEMBL1201862, “PubChem BioAssay data set” (2004).

Structures are written as SMILES. The source made the active and inactive calls.

Assay [1] in a line: HEp-2 cell cytotoxicity, dose response, cytotoxicity control for RSV inhibitor project, HTS (AID 2410). It is filed as functional. The note with it: human respiratory syncytial virus.
For assay [2], the target named is T1, Runt-related transcription factor 1/Core-binding factor subunit beta (Homo sapiens, UniProt Q01196+Q13951). The experiment in a line: inhibitors of RUNX1 Runt–CBFb-SMMHC binding, primary screen, biochemical, FRET, Cerulean-Runt, Venus-CBFb-SMMHC, uHTS (AID 1434).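 Note: partner is the CBFb-SMMHC leukemia fusion protein rather than wild-type CBFb.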 The format is protein assay.
Assay [3] addresses T1, Runt-related transcription factor 1/Core-binding factor subunit beta. The experiment in a line: inhibitors of RUNX1 Runt–CBFb-SMMHC binding, biochemical, TR-FRET (AID 1438). The format is protein assay. Background: TR-FRET usually uses a lanthanide donor and a delayed reading to cut background.
The target in another assay is Hexokinase (Trypanosoma brucei, UniProt Q38C41). In words: Confirmation assay for inhibitors of Trypanosoma brucei hexokinase 1-Analogue-first series. [Related pubchem assays (depositor defined):AID1430, AID1632, AID2516, AID2560, AID2579, AID2600, AID449725, AID492951]. The format is functional.
Assay [4] deals with Alkaline phosphatase, placental type (Homo sapiens, UniProt P05187). The experiment in a line: PLAP enzyme inhibitors, confirmation, biochemical, luminescence (AID 1512). The format is functional.
The target in assay [5] is T2, Alkaline phosphatase, tissue-nonspecific isozyme (Homo sapiens, UniProt P05186).
T2 sequence (P05186 whole entry): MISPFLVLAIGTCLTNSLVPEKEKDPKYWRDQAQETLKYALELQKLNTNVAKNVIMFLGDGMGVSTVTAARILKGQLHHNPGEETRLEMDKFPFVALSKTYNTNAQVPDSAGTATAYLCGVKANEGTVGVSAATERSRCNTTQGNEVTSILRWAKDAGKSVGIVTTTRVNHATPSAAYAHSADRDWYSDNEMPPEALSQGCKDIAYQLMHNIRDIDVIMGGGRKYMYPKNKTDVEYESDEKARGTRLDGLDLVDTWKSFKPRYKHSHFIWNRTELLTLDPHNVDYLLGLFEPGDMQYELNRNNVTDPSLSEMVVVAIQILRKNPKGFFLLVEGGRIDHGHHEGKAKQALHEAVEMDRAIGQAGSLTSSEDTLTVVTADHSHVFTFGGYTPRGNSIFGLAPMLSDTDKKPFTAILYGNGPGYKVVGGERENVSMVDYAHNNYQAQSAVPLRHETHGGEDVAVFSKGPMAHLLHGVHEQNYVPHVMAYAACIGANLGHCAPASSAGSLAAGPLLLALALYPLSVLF
The experiment in a line: human TNAP enzyme inhibitors, SAR follow-up, biochemical, luminescent, dose response (AID 1056).

The target of assay [6] is Glucose-6-phosphate 1-dehydrogenase (Homo sapiens, UniProt P11413). The experiment in a line: human G6PD enzyme inhibitors, dose response, selectivity assay for P. falciparum G6PD inhibitor project, biochemical, fluorescence (AID 504792). The format is functional.
Assay [7] addresses T3, Mitochondrial peptide methionine sulfoxide reductase (Bos taurus, UniProt P54149).
T3 sequence (P54149 whole entry): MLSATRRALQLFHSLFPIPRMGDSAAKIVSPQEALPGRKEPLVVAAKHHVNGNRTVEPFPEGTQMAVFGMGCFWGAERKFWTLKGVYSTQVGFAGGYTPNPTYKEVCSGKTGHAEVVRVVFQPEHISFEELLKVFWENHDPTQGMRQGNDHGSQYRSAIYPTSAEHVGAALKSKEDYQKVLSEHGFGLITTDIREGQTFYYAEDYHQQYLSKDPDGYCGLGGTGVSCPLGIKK
The experiment in a line: Absorbance-based biochemical high throughput dose response assay for activators of Methionine sulfoxide reductase A (MsrA). The format is functional.

In a further assay the target is Large T antigen (Simian virus 40, UniProt P03070). The format is functional, Betapolyomavirus macacae.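 Note: Confirmatory-stage PubChem screen for compounds that inhibit SV40 T antigen.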
For a further assay, the target named is Trypsin (Sus scrofa, UniProt P00761). In words: porcine trypsin inhibitors, dose response, selectivity assay for Rce1 protease inhibitor project, biochemical, quenched peptide fluorescence, cherry-pick (AID 488789).
Another assay deals with CAAX prenyl protease 2 (Saccharomyces cerevisiae S288c, UniProt Q03530). The format is biochemical.
A further assay addresses X-box-binding protein 1 (Homo sapiens, UniProt P17861). It is filed as functional, Cricetulus griseus.
The target in assay [8] is T4, Corticotropin-releasing factor receptor 2/Corticotropin-releasing factor-binding protein (Homo sapiens, UniProt P24387+Q13324).
T4 sequence (Q13324 whole entry): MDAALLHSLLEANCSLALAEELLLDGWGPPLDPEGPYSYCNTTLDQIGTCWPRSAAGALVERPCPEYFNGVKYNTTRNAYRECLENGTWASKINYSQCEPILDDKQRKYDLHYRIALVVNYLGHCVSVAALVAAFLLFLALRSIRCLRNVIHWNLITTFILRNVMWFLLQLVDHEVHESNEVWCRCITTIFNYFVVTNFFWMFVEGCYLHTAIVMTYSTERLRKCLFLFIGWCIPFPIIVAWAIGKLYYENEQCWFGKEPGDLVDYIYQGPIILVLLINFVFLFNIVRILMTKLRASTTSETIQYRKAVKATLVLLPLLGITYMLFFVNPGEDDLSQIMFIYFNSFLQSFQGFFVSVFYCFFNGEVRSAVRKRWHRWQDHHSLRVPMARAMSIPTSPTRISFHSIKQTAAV
T4 sequence (P24387 whole entry): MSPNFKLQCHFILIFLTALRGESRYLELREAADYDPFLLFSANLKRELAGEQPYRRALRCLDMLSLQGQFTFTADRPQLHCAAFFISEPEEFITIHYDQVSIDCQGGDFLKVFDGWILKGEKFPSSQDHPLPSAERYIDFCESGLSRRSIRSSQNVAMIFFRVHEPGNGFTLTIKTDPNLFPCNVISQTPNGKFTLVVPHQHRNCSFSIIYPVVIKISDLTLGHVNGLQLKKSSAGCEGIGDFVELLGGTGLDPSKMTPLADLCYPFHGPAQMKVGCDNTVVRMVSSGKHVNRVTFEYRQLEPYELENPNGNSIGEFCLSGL
In words: activators of CRF receptor 2 with binding protein – uHTS hits, confirmation (AID 602473). The format is functional. The settings on record: read-out: EC50_Mean.

Assay [9] deals with Intestinal-type alkaline phosphatase (Homo sapiens, UniProt P09923). In words: human intestinal alkaline phosphatase activators, dose response, biochemical, luminescence, uHTS hits (AID 463120). It is filed as functional.
Another assay has as its target T5, Hexokinase HKDC1 (Homo sapiens, UniProt Q2TB90).
T5 sequence (Q2TB90 whole entry): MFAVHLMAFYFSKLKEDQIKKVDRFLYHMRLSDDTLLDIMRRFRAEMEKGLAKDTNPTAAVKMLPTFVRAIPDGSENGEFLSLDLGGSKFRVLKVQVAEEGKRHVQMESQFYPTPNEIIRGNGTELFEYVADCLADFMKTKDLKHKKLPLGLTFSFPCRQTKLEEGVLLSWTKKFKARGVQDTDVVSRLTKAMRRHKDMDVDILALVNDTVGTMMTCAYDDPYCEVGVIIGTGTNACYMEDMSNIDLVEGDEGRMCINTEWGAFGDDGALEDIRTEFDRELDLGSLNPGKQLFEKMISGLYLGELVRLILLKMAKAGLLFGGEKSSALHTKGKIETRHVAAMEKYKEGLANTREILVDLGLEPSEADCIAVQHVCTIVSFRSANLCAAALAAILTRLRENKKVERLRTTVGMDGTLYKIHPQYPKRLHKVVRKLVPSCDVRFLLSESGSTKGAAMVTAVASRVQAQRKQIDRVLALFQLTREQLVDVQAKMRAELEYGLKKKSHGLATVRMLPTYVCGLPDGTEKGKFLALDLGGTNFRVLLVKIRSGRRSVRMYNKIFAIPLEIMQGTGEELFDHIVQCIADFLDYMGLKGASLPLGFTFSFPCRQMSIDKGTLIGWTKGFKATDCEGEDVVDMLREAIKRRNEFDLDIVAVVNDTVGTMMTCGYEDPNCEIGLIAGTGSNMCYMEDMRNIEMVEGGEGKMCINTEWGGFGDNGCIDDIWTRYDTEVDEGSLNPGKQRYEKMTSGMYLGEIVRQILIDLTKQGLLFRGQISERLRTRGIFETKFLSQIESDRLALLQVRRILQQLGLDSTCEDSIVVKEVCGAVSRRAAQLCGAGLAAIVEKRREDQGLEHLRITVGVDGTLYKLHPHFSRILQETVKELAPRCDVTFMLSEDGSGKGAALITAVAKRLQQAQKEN
The experiment in a line: HKDC1 hexokinase activators, dose response, biochemical, W721R variant (AID 504730). It is filed as functional.

A further assay deals with Nonstructural protein 1 (Influenza A virus, UniProt Q194T2). The format is functional, Influenza A virus (A/California/07/2009(H1N1)).
The next assay concerns the target T6, Hexokinase-1 (Homo sapiens, UniProt P19367).
T6 sequence (P19367 whole entry): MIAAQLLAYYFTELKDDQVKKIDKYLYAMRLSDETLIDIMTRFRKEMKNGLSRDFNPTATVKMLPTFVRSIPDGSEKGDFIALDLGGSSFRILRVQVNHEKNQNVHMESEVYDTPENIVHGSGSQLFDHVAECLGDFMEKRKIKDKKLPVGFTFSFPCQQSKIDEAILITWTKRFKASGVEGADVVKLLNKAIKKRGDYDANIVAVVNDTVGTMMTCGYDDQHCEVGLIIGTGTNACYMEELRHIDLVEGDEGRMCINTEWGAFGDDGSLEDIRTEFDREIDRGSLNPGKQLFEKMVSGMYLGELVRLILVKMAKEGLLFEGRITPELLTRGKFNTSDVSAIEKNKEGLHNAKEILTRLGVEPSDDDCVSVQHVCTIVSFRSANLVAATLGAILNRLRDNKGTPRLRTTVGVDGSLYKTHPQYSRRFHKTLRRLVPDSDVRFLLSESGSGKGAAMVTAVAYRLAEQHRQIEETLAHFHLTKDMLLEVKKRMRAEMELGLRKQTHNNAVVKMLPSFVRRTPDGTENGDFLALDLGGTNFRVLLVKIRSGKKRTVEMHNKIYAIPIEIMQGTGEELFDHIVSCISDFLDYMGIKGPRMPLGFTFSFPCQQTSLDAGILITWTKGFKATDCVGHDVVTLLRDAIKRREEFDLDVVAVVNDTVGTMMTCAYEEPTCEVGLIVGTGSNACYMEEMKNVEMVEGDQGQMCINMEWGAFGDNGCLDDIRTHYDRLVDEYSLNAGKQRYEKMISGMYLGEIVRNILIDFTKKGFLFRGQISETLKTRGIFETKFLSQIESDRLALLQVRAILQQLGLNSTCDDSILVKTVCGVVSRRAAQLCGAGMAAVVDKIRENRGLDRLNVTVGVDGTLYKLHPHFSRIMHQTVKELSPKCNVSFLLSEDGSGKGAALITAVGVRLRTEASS
In words: hexokinase 1 activators, dose response, selectivity assay for HKDC1 activator project, biochemical (AID 504762). It is filed as functional.

In assay [10] the target is Heat shock protein HSP 90-alpha (Homo sapiens, UniProt P07900). It is filed as functional, organism-based.
A short description of assay [11]: Shn3 3'UTR reporter inhibitors, dose response, cell-based, Clone20 osteoblasts, firefly luciferase, cherry-picked (AID 624132).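 Note: firefly luciferase luminescence from reporter carrying the Shn3 3'UTR in osteoblasts.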 The format is functional.
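Throughout, for Absolute IC50 (XBP1): confirmatory dose-response counter-screen serving a CHOP assay.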

T1 sequence (Q01196 whole entry, the tested form may be a part): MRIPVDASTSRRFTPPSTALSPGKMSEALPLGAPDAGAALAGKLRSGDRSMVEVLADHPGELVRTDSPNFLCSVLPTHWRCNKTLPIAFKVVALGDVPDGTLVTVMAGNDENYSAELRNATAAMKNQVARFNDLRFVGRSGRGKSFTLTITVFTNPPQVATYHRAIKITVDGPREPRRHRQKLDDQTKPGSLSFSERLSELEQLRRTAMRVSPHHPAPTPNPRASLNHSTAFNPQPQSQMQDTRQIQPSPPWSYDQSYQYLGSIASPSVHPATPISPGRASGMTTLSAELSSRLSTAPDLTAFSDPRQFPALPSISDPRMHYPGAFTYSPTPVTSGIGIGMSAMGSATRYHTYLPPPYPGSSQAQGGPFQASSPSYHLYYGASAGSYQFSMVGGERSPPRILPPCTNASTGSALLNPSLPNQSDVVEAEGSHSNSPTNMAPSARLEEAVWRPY
T1 sequence (Q13951 whole entry, the tested form may be a part): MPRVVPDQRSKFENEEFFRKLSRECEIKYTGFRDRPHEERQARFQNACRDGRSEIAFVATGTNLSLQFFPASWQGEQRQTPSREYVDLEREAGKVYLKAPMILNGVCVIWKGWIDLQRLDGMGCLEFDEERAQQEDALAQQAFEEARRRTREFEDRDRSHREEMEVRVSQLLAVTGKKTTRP
Sequence of Alkaline phosphatase, placental type (P05187 whole entry): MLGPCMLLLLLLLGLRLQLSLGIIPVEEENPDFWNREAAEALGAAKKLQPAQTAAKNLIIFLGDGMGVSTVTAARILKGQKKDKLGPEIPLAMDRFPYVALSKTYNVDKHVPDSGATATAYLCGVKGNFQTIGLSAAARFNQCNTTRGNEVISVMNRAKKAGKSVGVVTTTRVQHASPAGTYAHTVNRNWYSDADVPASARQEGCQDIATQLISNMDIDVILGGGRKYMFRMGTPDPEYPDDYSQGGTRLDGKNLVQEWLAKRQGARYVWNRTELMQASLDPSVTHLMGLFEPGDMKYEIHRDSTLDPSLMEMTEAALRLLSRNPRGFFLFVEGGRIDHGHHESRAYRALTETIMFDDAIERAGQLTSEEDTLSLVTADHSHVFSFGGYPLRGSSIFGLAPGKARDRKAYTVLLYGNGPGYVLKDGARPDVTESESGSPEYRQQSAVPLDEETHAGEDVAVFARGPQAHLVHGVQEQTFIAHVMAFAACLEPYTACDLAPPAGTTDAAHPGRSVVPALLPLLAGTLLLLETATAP
Sequence of Hexokinase (Q38C41 whole entry): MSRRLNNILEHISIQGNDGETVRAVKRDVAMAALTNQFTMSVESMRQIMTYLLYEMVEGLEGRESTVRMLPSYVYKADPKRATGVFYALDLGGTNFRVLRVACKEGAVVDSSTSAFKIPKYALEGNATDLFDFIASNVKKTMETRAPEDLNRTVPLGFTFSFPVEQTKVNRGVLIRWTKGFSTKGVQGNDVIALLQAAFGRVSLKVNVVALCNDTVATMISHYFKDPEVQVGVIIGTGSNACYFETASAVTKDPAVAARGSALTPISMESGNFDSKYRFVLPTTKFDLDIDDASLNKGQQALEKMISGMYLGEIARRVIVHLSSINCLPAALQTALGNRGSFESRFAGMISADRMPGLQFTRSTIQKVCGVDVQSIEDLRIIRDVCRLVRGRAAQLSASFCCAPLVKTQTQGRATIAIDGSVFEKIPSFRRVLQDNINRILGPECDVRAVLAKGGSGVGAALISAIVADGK
Sequence of Intestinal-type alkaline phosphatase (P09923 whole entry): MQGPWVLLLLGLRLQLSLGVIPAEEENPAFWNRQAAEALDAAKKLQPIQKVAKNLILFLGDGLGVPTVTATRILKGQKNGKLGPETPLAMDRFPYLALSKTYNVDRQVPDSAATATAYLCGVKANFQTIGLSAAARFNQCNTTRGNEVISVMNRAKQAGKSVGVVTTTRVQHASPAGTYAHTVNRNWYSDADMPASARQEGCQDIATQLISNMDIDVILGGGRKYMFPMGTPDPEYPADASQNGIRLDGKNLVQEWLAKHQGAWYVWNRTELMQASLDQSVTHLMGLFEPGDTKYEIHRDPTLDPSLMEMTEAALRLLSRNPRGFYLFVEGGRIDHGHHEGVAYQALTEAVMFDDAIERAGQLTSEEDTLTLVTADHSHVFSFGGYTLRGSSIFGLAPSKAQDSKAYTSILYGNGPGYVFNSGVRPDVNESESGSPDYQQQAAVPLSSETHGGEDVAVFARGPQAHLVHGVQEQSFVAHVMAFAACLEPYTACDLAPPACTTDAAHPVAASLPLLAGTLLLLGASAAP
Sequence of Glucose-6-phosphate 1-dehydrogenase (P11413 whole entry): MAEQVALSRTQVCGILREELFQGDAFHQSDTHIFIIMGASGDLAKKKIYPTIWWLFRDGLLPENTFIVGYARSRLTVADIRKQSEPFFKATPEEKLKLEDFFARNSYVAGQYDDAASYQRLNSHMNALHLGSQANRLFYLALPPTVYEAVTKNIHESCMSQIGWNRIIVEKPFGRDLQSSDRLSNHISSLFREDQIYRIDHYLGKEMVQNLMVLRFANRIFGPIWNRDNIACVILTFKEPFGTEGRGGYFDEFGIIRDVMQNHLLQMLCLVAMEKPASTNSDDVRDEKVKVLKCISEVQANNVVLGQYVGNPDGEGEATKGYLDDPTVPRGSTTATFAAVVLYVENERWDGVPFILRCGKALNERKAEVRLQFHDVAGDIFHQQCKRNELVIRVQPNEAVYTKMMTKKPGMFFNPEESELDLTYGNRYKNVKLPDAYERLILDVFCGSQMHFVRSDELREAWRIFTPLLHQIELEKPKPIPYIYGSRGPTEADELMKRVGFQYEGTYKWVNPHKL
Sequence of CAAX prenyl protease 2 (Q03530 whole entry): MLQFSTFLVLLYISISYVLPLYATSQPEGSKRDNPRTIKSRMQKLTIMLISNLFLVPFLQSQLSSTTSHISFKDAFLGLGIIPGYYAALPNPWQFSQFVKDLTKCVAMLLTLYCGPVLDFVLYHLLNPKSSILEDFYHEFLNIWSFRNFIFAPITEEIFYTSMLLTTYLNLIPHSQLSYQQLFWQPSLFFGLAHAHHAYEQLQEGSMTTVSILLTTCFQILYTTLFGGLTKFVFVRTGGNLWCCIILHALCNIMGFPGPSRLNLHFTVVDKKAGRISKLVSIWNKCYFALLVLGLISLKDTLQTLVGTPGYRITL
Sequence of Nonstructural protein 1 (Q194T2 whole entry): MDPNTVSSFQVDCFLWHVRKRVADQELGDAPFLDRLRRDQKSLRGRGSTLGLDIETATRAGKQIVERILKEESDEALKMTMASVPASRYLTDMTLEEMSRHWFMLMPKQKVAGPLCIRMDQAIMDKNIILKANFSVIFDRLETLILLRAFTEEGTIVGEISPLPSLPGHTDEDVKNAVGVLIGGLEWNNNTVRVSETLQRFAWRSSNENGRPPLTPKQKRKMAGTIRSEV
Sequence of Large T antigen (P03070 whole entry): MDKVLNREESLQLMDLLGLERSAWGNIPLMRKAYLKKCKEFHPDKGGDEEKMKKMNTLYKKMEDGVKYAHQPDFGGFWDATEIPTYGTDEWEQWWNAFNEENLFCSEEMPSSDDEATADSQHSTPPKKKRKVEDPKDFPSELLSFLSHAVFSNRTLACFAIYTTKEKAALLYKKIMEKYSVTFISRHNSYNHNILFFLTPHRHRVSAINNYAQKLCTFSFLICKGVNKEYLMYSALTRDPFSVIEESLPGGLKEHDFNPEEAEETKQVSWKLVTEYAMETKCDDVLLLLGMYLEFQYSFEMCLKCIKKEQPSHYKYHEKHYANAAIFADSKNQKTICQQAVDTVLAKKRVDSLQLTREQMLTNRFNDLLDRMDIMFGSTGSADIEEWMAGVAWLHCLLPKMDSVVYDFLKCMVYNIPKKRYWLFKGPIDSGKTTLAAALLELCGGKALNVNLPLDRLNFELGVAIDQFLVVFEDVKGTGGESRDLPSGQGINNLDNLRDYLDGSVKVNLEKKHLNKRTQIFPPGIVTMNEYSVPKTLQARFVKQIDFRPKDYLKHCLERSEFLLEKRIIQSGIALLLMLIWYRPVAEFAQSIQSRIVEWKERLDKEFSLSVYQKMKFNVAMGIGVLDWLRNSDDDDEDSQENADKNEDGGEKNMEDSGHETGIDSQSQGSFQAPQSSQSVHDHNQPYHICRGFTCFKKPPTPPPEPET
Sequence of X-box-binding protein 1 (P17861 whole entry): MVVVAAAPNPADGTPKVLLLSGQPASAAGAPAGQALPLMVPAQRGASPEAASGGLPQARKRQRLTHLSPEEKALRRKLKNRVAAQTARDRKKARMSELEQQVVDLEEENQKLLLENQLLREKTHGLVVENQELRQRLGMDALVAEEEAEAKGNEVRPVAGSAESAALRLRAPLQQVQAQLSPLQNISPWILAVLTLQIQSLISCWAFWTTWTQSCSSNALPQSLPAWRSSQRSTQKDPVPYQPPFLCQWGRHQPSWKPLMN
Sequence of Trypsin (P00761 whole entry): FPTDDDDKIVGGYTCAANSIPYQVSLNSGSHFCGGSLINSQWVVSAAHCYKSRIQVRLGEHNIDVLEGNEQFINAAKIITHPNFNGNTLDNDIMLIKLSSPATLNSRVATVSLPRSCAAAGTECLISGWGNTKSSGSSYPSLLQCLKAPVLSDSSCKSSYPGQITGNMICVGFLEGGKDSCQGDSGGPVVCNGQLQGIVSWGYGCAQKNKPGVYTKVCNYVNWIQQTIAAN

As a reminder, the CC50 is the concentration that lowers cell viability or growth by half. By IC50 is commonly meant the concentration at which inhibition is half-maximal. As to `Nc1c(C(=O)NCc2ccco2)c2nc3ccccc3nc2n1CCc1ccccc1F`, the CC50 in [1] is 24.3 µM (active). In addition, the IC50 is 13.7 µM (active) in assay [2] and 86.3 µM (inactive) in assay [3].

As for `COC(=O)c1ccc(Cl)cc1NC(=O)c1ccccc1OC`, the IC50 on Hexokinase was > 25 µM (inactive).

As for `Cc1ccc(-c2nnc(SCC(=O)c3ccc(O)c(O)c3)n2-c2ccc(Cl)cc2)cc1`, the IC50 is 15.3 µM (active) in [4] and > 100 µM (inactive) in assay [5].

On to `N#Cc1ccc2sn(-c3ccccc3)c(=O)c2c1`, for which the IC50 on Hexokinase was 2.97 µM (active); in assay [6] it was 14.1 µM (active). For the same compound, the EC50 in assay [7] is > 104 µM (inactive).

In general, AC50 refers to the concentration at which the activity in the assay is half-maximal. As for `O=C(O)c1ccc(-c2ccc(O)c(F)c2)cc1`, the IC50 on Large T antigen is 6.76 µM (active). Further, the concentration at half-maximal activity (AC50) was 11.9 µM (active) on Trypsin and > 100 µM (inactive) on CAAX prenyl protease 2.

On to `CC1(c2ccc(OC(F)F)cc2)NC(=O)N(/N=C/c2c(O)ccc3ccccc23)C1=O` (centres undefined), for which the “Absolute IC50 (XBP1)” value on X-box-binding protein 1 worked out at 10 µM. The EC50 in [8] was > 53 µM (inactive).

In the case of `COc1ccc2o/c(=N\O)c(C(=O)Nc3ccccc3OC)cc2c1`, the IC50 in assay [2] was 59 µM (inactive); in assay [3] it was 60.5 µM (inactive).

For the compound `Cc1ccc(O)c(-c2cc(C(=O)NCc3ccc4c(c3)OCO4)[nH]n2)c1`, in [9], the EC50 is 13 µM (active).

With `O=C(NC1(C(F)(F)F)Oc2ccccc2O1)c1ccc(Cl)cc1`, the IC50 in assay [4] and in assay [5] was > 100 µM (inactive) in each case.

Consider `CC(N/N=C(\S)N1CCN(c2ccccn2)CC1)c1nccc2ccccc12` (centres undefined), for which the figures for the EC50 on Hexokinase HKDC1 and on Hexokinase-1 were 2.19 µM (active) and > 80 µM (inactive), respectively. In addition, the concentration for half-maximal inhibition (IC50) on Nonstructural protein 1 was 2.43 µM (active). Further, the AC50 in assay [10] is 2.58 µM (active); in [11], < 0.26 µM (active).
